ChEMBL document CHEMBL1201862, “PubChem BioAssay data set” (2004)
Calls of active or inactive are those of the source.

Legend:
P388/ADR = assay: cells; assay type: functional; conditions: Mus musculus
[1] = target: FAD-linked sulfhydryl oxidase ALR (Homo sapiens, UniProt P55789); assay: ALR-catalysed DTT oxidation blockers – biochemical, H2O2 detection, luminescence, cherry-pick, dose response (AID 493248)
[2] = target: T1, Sentrin-specific protease 1 (Homo sapiens, UniProt Q9P0U3); assay: Dose response confirmation of small molecule inhibitors of the catalytic domain of the SUMO protease, SENP1 in a FRET assay.; assay type: functional; conditions: read-out: IC50_Mean
T1 sequence (Q9P0U3 whole entry): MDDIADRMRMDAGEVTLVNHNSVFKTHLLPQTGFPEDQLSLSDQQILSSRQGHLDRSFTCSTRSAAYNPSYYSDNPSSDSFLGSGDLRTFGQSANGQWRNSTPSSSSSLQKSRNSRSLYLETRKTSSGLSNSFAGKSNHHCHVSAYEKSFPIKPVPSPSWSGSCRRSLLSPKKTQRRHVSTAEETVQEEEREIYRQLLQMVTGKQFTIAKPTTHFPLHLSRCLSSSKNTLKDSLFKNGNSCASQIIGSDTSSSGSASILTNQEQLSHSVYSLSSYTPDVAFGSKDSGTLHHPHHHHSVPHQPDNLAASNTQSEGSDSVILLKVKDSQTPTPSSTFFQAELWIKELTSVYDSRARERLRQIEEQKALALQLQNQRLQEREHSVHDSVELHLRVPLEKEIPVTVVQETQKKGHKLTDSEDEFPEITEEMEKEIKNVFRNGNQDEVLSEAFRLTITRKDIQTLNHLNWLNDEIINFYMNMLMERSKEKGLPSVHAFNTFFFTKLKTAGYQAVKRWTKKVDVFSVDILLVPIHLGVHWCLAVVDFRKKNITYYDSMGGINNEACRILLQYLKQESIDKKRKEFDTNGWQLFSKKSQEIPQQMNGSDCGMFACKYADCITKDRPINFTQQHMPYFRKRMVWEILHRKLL

[3] = target: Glucose-6-phosphate 1-dehydrogenase (Homo sapiens, UniProt P11413); assay: inhibition of Homo sapiens G6PD, dose series – biochemical, fluorescence, selectivity assay for P. falciparum G6PD inhibitor project, dose response (AID 504792); assay type: functional
Chain of Glucose-6-phosphate 1-dehydrogenase (P11413 whole entry): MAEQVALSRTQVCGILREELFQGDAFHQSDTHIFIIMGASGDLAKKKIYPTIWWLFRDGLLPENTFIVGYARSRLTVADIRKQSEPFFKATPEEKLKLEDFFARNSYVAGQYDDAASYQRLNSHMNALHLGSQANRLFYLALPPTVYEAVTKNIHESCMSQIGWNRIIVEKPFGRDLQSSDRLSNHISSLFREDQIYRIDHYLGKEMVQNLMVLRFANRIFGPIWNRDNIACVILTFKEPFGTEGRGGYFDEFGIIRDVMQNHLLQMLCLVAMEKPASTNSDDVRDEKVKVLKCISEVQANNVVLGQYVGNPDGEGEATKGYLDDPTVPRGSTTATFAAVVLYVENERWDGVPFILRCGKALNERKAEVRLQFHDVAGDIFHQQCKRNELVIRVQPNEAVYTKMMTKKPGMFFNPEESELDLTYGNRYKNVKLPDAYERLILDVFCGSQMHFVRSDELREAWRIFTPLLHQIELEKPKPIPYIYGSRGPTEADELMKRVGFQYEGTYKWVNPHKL

[4] = target: T2, Tyrosine-protein phosphatase non-receptor type 11 (Homo sapiens, UniProt Q06124); assay: PTPN11 enzyme inhibitors – biochemical, selectivity assay for STEP inhibitor project, dose response (AID 602367); assay type: functional; conditions: read-out: IC50_Mean
T2 sequence (Q06124 whole entry): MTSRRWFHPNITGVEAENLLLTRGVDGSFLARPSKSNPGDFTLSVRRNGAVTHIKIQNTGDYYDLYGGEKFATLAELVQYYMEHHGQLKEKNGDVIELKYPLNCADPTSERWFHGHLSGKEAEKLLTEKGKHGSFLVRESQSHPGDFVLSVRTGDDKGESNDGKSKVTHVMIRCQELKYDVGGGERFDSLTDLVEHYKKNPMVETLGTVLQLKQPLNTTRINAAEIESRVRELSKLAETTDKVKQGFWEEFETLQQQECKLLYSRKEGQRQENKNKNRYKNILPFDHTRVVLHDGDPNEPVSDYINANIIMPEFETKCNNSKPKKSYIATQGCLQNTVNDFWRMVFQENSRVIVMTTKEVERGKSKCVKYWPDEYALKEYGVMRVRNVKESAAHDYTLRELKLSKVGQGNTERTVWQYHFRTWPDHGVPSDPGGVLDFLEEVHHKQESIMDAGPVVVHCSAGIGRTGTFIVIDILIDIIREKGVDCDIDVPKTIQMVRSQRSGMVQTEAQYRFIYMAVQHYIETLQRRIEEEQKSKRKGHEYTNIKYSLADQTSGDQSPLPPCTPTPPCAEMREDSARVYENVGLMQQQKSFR

[5] = target: T3, Tyrosine-protein phosphatase non-receptor type 5 (Homo sapiens, UniProt P54829); assay: PTPN5 enzyme inhibition – biochemical, fluorescence intensity, uHTS hits, confirmation (AID 602372); assay type: functional; conditions: read-out: IC50_Mean
T3 sequence (P54829 whole entry): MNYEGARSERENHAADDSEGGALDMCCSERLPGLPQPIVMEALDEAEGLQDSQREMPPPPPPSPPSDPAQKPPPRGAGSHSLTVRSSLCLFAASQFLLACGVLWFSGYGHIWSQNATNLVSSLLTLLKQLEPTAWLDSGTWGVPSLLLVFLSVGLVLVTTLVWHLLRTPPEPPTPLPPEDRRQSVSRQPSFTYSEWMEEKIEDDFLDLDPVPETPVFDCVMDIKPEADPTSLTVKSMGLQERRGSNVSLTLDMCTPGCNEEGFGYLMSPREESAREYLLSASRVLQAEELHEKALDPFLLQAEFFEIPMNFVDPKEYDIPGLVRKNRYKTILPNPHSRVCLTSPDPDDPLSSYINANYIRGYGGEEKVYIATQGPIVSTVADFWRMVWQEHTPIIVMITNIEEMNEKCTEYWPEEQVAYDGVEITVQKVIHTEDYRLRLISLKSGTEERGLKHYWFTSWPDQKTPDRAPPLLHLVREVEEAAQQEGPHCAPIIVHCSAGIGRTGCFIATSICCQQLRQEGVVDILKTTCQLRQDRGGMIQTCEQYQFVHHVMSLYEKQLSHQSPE

[6] = target: Dual specificity protein phosphatase 3 (Homo sapiens, UniProt P51452); assay: VHR phosphatase inhibition, dose response, selectivity assay for STEP inhibitor project, biochemical (AID 602374); assay type: functional; conditions: read-out: IC50_Mean
Chain of Dual specificity protein phosphatase 3 (P51452 whole entry): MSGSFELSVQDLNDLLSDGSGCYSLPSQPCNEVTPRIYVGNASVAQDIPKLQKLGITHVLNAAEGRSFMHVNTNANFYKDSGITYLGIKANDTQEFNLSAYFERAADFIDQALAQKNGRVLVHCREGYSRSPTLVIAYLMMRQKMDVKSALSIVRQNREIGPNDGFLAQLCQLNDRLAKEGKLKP

[7] = target: T4, Low molecular weight phosphotyrosine protein phosphatase (Homo sapiens, UniProt P24666); assay type: functional; conditions: read-out: IC50_Mean;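 also: Dose-response confirmation assay measuring inhibition of LMPTP enzyme activity by fluorescence intensity read-out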
T4 sequence (P24666 whole entry): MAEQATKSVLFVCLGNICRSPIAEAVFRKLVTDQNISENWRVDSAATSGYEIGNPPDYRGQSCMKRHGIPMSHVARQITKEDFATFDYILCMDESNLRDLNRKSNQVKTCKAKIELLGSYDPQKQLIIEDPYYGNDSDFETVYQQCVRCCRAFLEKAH

Melanocortin receptor 4 = Melanocortin receptor 4 (Homo sapiens, UniProt P32245); assay type: functional, cell-based;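 also: Cell-based assay with luminescence read-out, confirmatory dose-response testing for agonist activity of biased ligands at MC4R; human U2OS cells with tagged receptor and beta-arrestin; potency of agonists that increase receptor coupling to beta-arrestin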
Chain of Melanocortin receptor 4 (P32245 whole entry, the tested form may be a part): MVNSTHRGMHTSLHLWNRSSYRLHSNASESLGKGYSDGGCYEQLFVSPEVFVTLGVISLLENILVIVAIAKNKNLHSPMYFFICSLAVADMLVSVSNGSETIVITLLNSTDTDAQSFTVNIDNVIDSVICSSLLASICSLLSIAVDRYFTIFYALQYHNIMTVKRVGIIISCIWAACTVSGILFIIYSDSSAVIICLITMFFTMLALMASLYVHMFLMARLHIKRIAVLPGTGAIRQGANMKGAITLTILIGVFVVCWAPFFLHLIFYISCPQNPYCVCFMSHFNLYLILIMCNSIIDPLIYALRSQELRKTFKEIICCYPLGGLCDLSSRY

[8] = target: T5, RNA-binding protein pos-1 (Caenorhabditis elegans, UniProt G5EF15); assay: disruptors of C. elegans POS-1 RNA interaction – biochemical, fluorescence polarization, dose response (AID 1964);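 also: purified POS-1 fused to maltose binding protein made in E. coli; potency of compounds blocking POS-1 binding to fluorescent RNA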
T5 sequence (G5EF15 whole entry): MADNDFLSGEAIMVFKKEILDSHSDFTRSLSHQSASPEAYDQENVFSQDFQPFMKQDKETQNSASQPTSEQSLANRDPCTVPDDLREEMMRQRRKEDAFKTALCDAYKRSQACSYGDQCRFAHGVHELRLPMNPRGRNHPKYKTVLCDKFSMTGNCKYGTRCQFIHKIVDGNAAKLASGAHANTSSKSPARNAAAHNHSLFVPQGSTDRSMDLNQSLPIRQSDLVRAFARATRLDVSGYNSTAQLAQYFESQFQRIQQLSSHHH

[9] = target: T6, Zinc finger protein mex-5 (Caenorhabditis elegans, UniProt Q9XUB2); assay: potency of MEX-5 RNA-binding blockers – biochemical, C. elegans, fluorescence polarization, dose response (AID 1960)
T6 sequence (Q9XUB2 whole entry): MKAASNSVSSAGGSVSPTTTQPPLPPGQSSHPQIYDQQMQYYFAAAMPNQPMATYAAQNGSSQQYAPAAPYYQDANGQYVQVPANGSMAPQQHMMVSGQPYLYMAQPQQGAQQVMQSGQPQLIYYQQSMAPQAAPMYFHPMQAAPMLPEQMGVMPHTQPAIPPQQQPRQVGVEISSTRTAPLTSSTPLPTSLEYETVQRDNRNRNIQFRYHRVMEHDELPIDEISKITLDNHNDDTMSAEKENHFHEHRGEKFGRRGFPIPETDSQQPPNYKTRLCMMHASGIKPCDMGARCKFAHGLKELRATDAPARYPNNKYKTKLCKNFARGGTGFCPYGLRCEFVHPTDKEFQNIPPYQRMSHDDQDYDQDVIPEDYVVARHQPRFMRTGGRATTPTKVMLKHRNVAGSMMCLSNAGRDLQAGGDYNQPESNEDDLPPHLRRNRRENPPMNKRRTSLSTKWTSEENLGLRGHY

[10] = target: T7, Calpain-2 catalytic subunit (Sus scrofa, UniProt P43367); assay: m-calpain protease blockers, concentration series – biochemical, fluorogenic peptide substrate, dose response (AID 1420); assay type: functional
T7 sequence (P43367 whole entry): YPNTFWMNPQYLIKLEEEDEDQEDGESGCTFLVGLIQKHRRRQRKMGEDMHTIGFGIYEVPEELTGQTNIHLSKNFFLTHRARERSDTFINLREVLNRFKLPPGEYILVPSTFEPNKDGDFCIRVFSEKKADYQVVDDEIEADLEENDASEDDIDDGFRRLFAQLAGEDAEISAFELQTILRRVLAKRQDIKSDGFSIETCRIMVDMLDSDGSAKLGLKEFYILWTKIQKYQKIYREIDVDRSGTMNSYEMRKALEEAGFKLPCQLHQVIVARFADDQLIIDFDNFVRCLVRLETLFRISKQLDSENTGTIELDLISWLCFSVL

Cysteine protease ATG4B = target: T8, Cysteine protease ATG4B (Homo sapiens, UniProt Q9Y4P1); assay type: functional;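 also: Fluorescence-based dose-response confirmation assay measuring inhibition of ATG4B activity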
T8 sequence (Q9Y4P1 whole entry): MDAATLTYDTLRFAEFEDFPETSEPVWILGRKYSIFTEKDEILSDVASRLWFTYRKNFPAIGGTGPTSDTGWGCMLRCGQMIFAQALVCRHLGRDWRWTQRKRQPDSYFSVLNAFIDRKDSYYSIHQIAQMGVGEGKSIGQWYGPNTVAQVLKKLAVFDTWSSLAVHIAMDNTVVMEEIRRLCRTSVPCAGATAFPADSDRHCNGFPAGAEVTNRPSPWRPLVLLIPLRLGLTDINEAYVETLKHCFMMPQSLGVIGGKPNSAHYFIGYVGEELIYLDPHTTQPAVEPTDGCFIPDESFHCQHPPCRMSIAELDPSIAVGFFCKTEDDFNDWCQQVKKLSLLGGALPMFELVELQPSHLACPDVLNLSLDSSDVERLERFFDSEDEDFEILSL

Phospholipase A2 = Phospholipase A2 (Homo sapiens, UniProt P04054); assay type: functional;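 also: confirmatory dose-response counterscreen on phospholipase A2, testing hits that came from an ultra-high-throughput screen for ATG4B inhibitors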
Chain of Phospholipase A2 (P04054 whole entry): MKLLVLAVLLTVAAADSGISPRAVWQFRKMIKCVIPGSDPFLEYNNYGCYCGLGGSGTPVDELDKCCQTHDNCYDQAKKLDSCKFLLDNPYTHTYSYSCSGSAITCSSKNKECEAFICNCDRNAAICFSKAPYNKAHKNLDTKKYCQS

[11] = target: T9, Histone-lysine N-methyltransferase NSD2 (Homo sapiens, UniProt O96028); assay type: biochemical
T9 sequence (O96028 whole entry): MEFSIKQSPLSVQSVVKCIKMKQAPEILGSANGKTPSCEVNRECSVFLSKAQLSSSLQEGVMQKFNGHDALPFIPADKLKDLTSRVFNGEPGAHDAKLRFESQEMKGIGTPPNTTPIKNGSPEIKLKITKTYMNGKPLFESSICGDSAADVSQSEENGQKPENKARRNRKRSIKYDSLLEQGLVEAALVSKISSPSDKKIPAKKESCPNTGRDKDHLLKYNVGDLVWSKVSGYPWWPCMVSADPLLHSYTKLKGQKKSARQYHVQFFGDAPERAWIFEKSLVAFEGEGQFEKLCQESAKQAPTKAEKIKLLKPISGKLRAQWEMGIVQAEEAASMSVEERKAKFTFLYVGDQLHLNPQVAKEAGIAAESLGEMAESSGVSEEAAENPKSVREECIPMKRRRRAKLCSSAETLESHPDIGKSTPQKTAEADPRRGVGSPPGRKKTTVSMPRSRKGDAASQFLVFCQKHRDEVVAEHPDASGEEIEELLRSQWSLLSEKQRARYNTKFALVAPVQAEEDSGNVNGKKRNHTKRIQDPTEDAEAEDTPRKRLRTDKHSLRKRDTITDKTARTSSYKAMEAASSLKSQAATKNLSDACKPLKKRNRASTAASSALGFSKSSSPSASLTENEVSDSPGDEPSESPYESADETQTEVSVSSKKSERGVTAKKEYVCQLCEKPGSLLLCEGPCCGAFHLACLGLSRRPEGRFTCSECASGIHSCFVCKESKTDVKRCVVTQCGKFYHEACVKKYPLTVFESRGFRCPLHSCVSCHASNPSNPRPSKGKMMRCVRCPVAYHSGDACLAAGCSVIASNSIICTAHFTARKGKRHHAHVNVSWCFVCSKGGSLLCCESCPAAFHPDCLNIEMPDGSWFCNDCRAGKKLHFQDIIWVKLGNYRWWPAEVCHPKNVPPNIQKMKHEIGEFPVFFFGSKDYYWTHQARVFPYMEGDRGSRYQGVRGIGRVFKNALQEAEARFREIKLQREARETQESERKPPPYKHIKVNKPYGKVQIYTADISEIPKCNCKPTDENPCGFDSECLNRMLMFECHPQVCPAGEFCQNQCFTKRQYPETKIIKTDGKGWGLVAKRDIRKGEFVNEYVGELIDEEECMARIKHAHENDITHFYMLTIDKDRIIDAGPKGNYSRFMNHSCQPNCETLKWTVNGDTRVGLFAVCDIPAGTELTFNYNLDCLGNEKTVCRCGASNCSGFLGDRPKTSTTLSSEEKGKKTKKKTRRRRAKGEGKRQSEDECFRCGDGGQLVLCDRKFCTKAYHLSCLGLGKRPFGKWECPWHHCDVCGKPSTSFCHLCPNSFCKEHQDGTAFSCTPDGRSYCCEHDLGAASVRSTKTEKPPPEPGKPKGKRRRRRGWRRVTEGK

Chain of FAD-linked sulfhydryl oxidase ALR (P55789 whole entry, the tested form may be a part): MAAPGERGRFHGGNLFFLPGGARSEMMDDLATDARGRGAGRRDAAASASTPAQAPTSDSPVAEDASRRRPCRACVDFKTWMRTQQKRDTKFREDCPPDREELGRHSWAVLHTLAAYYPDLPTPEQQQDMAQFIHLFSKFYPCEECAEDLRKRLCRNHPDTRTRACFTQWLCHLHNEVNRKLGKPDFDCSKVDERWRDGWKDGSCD

## COc1cccc2c1C(=O)c1c(O)c3c(c(O)c1C2=O)C[C@@](O)(C(C)=O)C[C@@H]3OC1CC(O)C(O)C(C)O1 (stereo partly specified)
P388/ADR
  GI50: 0.293 µM (active)

## Nc1cc([N+](=O)[O-])ccc1Nc1ccccc1
[1]
  AC50: 0.509 µM (active)
[2]
  IC50: 37.8 µM (inactive)

## Cn1c(=O)[nH]c(=O)c2c1nc(SCCN1CCCCC1)n2CCCc1ccccc1
[3]
  IC50: > 80 µM (inactive)
[4]
  IC50: 0.599 µM (active)
[5]
  IC50: 34.9 µM (inactive)
[6]
  IC50: 0.57 µM (active)

## CSc1sc(-c2nnc(S)n2C)c2c1C=CCC2
[7]
  IC50: 38.2 µM (inactive)

## O=C(NCCCn1ccnc1)C(Cc1ccccc1)N1C(=O)c2ccccc2C1=O (stereo unspecified)
[4]
  IC50: 11.8 µM (active)
[5]
  IC50: 36.1 µM (inactive)
[6]
  IC50: 3.08 µM (active)

## COCCNC(=O)c1cccc2c1C(=O)c1ccc(N3CCOCC3)cc1S2(=O)=O
[2]
  IC50: 14.1 µM (active)

## O=C(CCN1C(=O)/C(=C/C=C/c2ccccc2)SC1=S)Nc1ccccn1
Melanocortin receptor 4
  EC50: > 89.2 µM (inactive)

## COc1ccc2c(c1)CCc1c(C(=O)Nc3ccn(Cc4ccc(C)cc4)n3)noc1-2
Melanocortin receptor 4
  EC50: > 89.2 µM (inactive)

## Cc1ccccc1NC1=NC(=O)/C(=C/c2cccn2-c2cccc(C(=O)O)c2)S1
[8]
  EC50: > 300 µM (not active)
[9]
  EC50: 70 µM (active)
[10]
  IC50: 1.09 µM (not active)
Cysteine protease ATG4B
  IC50: 10.2 µM (active)
Phospholipase A2
  IC50: 8.6 µM (active)
[11]
  AC50: > 20 µM (inactive)

## Cc1ccc(C(=O)NCCNc2nc3cc(C)c(C)cc3cc2C)cc1
Melanocortin receptor 4
  EC50: > 89.2 µM (inactive)
